molecular target: T1, HCV NS5B RdRp (Hepatitis C virus genotype 1b, UniProt Q9WMX2); assay: HCV NS5B RdRp enzyme inhibition assay; type: biochemical
T1 construct: The protein was expressed with an 18 amino acid C-terminal truncation to enhance the solubility; made in house; host or cells: E. coli BL21(DE3)
Procedure: HCV NS5B RdRp cloning, expression, and purification. The cDNA encoding the NS5B protein of HCV, genotype 1b, was cloned into the pET21a expression vector. The protein was expressed with an 18 amino acid C-terminal truncation to enhance the solubility. The E. coli competent cell line BL21(DE3) was used for expression of the protein. Cultures were grown at 37° C. for ˜4 hours until the cultures reached an optical density of 2.0 at 600 nm. The cultures were cooled to 20° C. and induced with 1 mM IPTG. Fresh ampicillin was added to a final concentration of 50 ug/ml and the cells were grown overnight at 20° C.
Cell pellets (3L) were lysed for purification to yield 15–24 mgs of purified NS5B. The lysis buffer consisted of 20 mM Tris-HCl, pH 7.4, 500 mM NaCl, 0.5% triton X-100, 1 mM DTT, 1 mM EDTA, 20% glycerol, 0.5 mg/ml lysozyme, 10 mM MgCl2, 15 ug/ml deoxyribonuclease I, and Complete TM protease inhibitor tablets (Roche). After addition of the lysis buffer, frozen cell pellets were resuspended using a tissue homogenizer. To reduce the viscosity of the sample, aliquots of the lysate were sonicated on ice using a microtip attached to a Branson sonicator. The sonicated lysate was centrifuged at 100,000×g for 1 hr at 4° C. and filtered through a 0.2 μm filter unit (Corning).
The protein was purified using three sequential chromatography steps: Heparin sepharose CL-6B, polyU sepharose 4B, and Hitrap SP sepharose (Pharmacia). The chromatography buffers were identical to the lysis buffer but contained no lysozyme, deoxyribonuclease I, MgCl2 or protease inhibitor and the NaCl concentration of the buffer was adjusted according to the requirements for charging the protein onto the column. Each column was eluted with a NaCl gradient which varied in length from 5–50 column volumes depending on the column type. After the final chromatography step, the resulting purity of the enzyme is >90% based on SDS-PAGE analysis. The enzyme was aliquoted and stored at −80° C.
HCV NS5B RdRp enzyme assay. HCV RdRp genotype 1b assays were run in assay buffer composed of 20 mM Tris-HCl, pH 7.5, 2.5 mM KCl, 5 mM MgCl2, 1 mM DTT, 1.6 U RNAse inhibitor (Promega N2515), in 96 well plates (Falcon 3918). All compounds were serially diluted in DMSO and diluted further in assay buffer such that the final concentration of DMSO in the assay was 2%. Compounds were serially diluted (3-fold each time) for a 7 point inhibition analysis. HCV RdRp genotype 1b enzyme was used at a final concentration of 28 nM. A polyA template was used at 28 nM, and the oligo-dT12-18 primer was used at 840 nM final concentration. Preannealed primer and template were obtained commercially (Amersham 27-787802). ^3H-UTP was used at 0.125 μCi (1 μM total UTP). Reaction was initiated by the addition of enzyme. Reactions were incubated at 30° C. for 45 min, and stopped by adding 30 ul of 20% ice cold TCA. Plates were chilled for 30 minutes and harvested onto Unifilter-96, GF/B plates (Packard, 6005177) using a Packard FilterMate Cell Harvester. The harvest plates were prewashed 3 times, 200 ul/well, with 100 mM NaPPi. Harvested filters were washed 30 times, 200 ul/well, with distilled water followed by ethanol. Filter plates were dried, and 30 ul/well microscint-20 was added. Plates were read on a Packard Top Count NXT.
The IC50 values for compounds were determined using […] different [I], combined with 7 nM enzyme, 800 ng of the template-primer polyC/oligoG12 (1:5 molar ratio), and 0.7 uM of ^3H GTP containing 1 uCi. The observed fractional activity (fa=vi/vo) was used in the equation IC50=[I]/(1/fa-1) to determine a single point IC50 value. Typically, the single point IC50 values derived from [I] that produced fractional activities in the range of 0.1 to 0.8 relative to the uninhibited control were averaged to calculate the IC50 value for each compound.

T1 sequence (Q9WMX2 2420-2992): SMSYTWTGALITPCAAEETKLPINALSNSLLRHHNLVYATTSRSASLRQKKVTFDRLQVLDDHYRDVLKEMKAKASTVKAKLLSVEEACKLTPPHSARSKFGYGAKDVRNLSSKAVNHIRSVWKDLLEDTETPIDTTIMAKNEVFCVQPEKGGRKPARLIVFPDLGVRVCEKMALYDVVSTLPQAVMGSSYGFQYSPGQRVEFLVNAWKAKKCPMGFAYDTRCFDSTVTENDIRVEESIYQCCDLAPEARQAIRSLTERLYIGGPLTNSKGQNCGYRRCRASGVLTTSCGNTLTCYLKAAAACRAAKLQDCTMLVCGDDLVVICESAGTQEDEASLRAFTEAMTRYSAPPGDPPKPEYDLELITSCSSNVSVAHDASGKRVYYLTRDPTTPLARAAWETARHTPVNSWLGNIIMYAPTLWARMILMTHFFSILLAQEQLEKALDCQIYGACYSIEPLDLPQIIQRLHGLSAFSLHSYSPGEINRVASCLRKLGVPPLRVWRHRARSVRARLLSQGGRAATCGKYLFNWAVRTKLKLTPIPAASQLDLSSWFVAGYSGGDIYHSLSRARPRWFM

Row | Structure (SMILES) | IC50 [µM]
1 | CCOC(=O)c1cc(-c2ccc(OCc3ccccc3)cc2)n(C2CCCCC2)n1 [Example 1, Ethyl 1-cyclohexyl-5-(4-benzyloxyphenyl)-1H-pyrazole-3-carboxylate] | > 25
2 | COC(=O)/C=C/c1cc(-c2ccc(OCc3ccccc3)cc2)n(C2CCCCC2)n1 [Example 2, Methyl (2E)-3-{5-[4-(benzyloxy)phenyl]-1-cyclohexyl-1H-pyrazol-3-yl}-2-propenoate] | > 25
3 | O=C(O)/C=C/c1cc(-c2ccc(OCc3ccccc3)cc2)n(C2CCCCC2)n1 [Example 3, (2E)-3-[1-cyclohexyl-5-(4-benzyloxyphenyl)-1H-pyrazol-3-yl]-2-propenoic acid] | 15
4 | COC(=O)/C=C/c1cc(-c2ccc(OCc3cc(OC)ccc3-c3ccc(Cl)cc3)cc2)n(C2CCCCC2)n1 [Example 4, Methyl (2E)-3-(5-{4-[(4′-chloro-4-methoxy-1,1′-biphenyl-2-yl)methoxy]phenyl}-1-cyclohexyl-1H-pyrazol-3-yl)-2-propenoate] | > 25
5 | COc1ccc(-c2ccc(Cl)cc2)c(COc2ccc(-c3cc(/C=C/C(=O)O)nn3C3CCCCC3)cc2)c1 [Example 5, (2E)-3-(5-{4-[(4′-chloro-4-methoxy-1,1′-biphenyl-2-yl)methoxy]phenyl}-1-cyclohexyl-1H-pyrazol-3-yl)-2-propenoic acid] | 0.45
6 | CCOC(=O)/C(C)=C/c1cc(-c2ccc(OCc3ccccc3)cc2)n(C2CCCCC2)n1 [Example 6, Ethyl (2E)-3-{5-[4-(benzyloxy)phenyl]-1-cyclohexyl-1H-pyrazol-3-yl}-2-methyl-2-propenoate] | > 25
7 | C/C(=C\c1cc(-c2ccc(OCc3ccccc3)cc2)n(C2CCCCC2)n1)C(=O)O [Example 7, (2E)-3-{5-[4-(benzyloxy)phenyl]-1-cyclohexyl-1H-pyrazol-3-yl}-2-methyl-2-propenoic acid] | 10
8 | CCOC(=O)/C(C)=C/c1cc(-c2ccc(OCc3cc(OC)ccc3-c3ccc(Cl)cc3)cc2)n(C2CCCCC2)n1 [Example 8, Ethyl (2E)-3-(5-{4-[(4′-chloro-4-methoxy-1,1′-biphenyl-2-yl)methoxy]phenyl}-1-cyclohexyl-1H-pyrazol-3-yl)-2-methyl-2-propenoate] | > 25
9 | COc1ccc(-c2ccc(Cl)cc2)c(COc2ccc(-c3cc(/C=C(\C)C(=O)O)nn3C3CCCCC3)cc2)c1 [Example 9, (2E)-3-(5-{4-[(4′-chloro-4-methoxy-1,1′-biphenyl-2-yl)methoxy]phenyl}-1-cyclohexyl-1H-pyrazol-3-yl)-2-methyl-2-propenoic acid] | 0.27
10 | CCOC(=O)/C(C)=C/c1cc(-c2ccc(OCc3cc(C(=O)OC(C)(C)C)ccc3Br)cc2)n(C2CCCCC2)n1 [Example 10, Ethyl (2E)-3-(5-{4-[(t-butyl-2-bromo-5-phenylcarboxylate)methoxy]phenyl}-1-cyclohexyl-1H-pyrazol-3-yl)-2-methyl-2-propenoate] | > 25
11 | CCOC(=O)/C(C)=C/c1cc(-c2ccc(OCc3cc(C(=O)OC(C)(C)C)ccc3-c3ccc(Cl)cc3)cc2)n(C2CCCCC2)n1 [Example 11, Ethyl (2E)-3-(5-{4-[(4′-chloro-4-t-butoxycarbonyl-1,1′-biphenyl-2-yl)methoxy]phenyl}-1-cyclohexyl-1H-pyrazol-3-yl)-2-methyl-2-propenoate] | > 25
12 | CCOC(=O)/C(C)=C/c1cc(-c2ccc(OCc3cc(C(=O)NC)ccc3-c3ccc(Cl)cc3)cc2)n(C2CCCCC2)n1 [Example 12, Ethyl (2E)-3-(5-{4-[(4′-Chloro-4-N-methylcarbamoyl-1,1′-biphenyl-2-yl)methoxy]phenyl}-1-cyclohexyl-1H-pyrazol-3-yl)-2-methyl-2-propenoate] | > 25
13 | CNC(=O)c1ccc(-c2ccc(Cl)cc2)c(COc2ccc(-c3cc(/C=C(\C)C(=O)O)nn3C3CCCCC3)cc2)c1 [Example 13, (2E)-3-(5-{4-[(4′-Chloro-4-N-methylcarbamoyl-1,1′-biphenyl-2-yl)methoxy]phenyl}-1-cyclohexyl-1H-pyrazol-3-yl)-2-methyl-2-propenoic acid] | 0.38
14 | COC(=O)CCc1cc(-c2ccc(OCc3ccccc3)cc2)n(C2CCCCC2)n1 [Example 14, Methyl 3-{5-[4-(benzyloxy)phenyl]-1-cyclohexyl-1H-pyrazol-3-yl}propanoate] | > 25
15 | O=C(O)CCc1cc(-c2ccc(OCc3ccccc3)cc2)n(C2CCCCC2)n1 [Example 15, 3-{5-[4-(benzyloxy)phenyl]-1-cyclohexyl-1H-pyrazol-3-yl}propanoic acid] | > 25
16 | COC(=O)CCc1cc(-c2ccc(OCc3cc(OC)ccc3-c3ccc(Cl)cc3)cc2)n(C2CCCCC2)n1 [Example 16, Methyl 3-(5-{4-[(4′-chloro-4-methoxy-1,1′-biphenyl-2-yl)methoxy]phenyl}-1-cyclohexyl-1H-pyrazol-3-yl)propanoate] | > 25
17 | COc1ccc(-c2ccc(Cl)cc2)c(COc2ccc(-c3cc(CCC(=O)O)nn3C3CCCCC3)cc2)c1 [Example 17, 3-(5-{4-[(4′-chloro-4-methoxy-1,1′-biphenyl-2-yl)methoxy]phenyl}-1-cyclohexyl-1H-pyrazol-3-yl)propanoic acid] | 1.8
18 | CCOC(=O)C#Cc1cc(-c2ccc(OCc3ccccc3)cc2)n(C2CCCCC2)n1 [Example 18, Ethyl 3-{5-[4-(benzyloxy)phenyl]-1-cyclohexyl-1H-pyrazol-3-yl}-2-propynoate] | > 25
19 | O=C(O)C#Cc1cc(-c2ccc(OCc3ccccc3)cc2)n(C2CCCCC2)n1 [Example 19, 3-{5-[4-(benzyloxy)phenyl]-1-cyclohexyl-1H-pyrazol-3-yl}-2-propynoic acid] | 4.9
20 | CCOC(=O)C#Cc1cc(-c2ccc(OCc3cc(OC)ccc3-c3ccc(Cl)cc3)cc2)n(C2CCCCC2)n1 [Example 20, Ethyl 3-(5-{4-[(4′-chloro-4-methoxy-1,1′-biphenyl-2-yl)methoxy]phenyl}-1-cyclohexyl-1H-pyrazol-3-yl)-2-propynoate] | > 25
21 | COc1ccc(-c2ccc(Cl)cc2)c(COc2ccc(-c3cc(C#CC(=O)O)nn3C3CCCCC3)cc2)c1 [Example 21, 3-(5-{4-[(4′-chloro-4-methoxy-1,1′-biphenyl-2-yl)methoxy]phenyl}-1-cyclohexyl-1H-pyrazol-3-yl)-2-propynoic acid] | 2.3
22 | CCOC(=O)c1nn(C2CCCCC2)c(-c2ccc(OCc3ccccc3)cc2)c1Br [Example 22, Ethyl 5-[4-(benzyloxy)phenyl]-4-bromo-1-cyclohexyl-1H-pyrazole-3-carboxylate] | > 25
23 | COC(=O)/C=C/c1nn(C2CCCCC2)c(-c2ccc(OCc3ccccc3)cc2)c1Br [Example 23, Methyl (2E)-3-{5-[4-(benzyloxy)phenyl]-4-bromo-1-cyclohexyl-1H-pyrazol-3-yl}-2-propenoate] | > 25
24 | O=C(O)/C=C/c1nn(C2CCCCC2)c(-c2ccc(OCc3ccccc3)cc2)c1Br [Example 24, (2E)-3-{5-[4-(benzyloxy)phenyl]-4-bromo-1-cyclohexyl-1H-pyrazol-3-yl}-2-propenoic acid] | 3.1
25 | COC(=O)/C=C/c1nn(C2CCCCC2)c(-c2ccc(OCc3ccccc3)cc2)c1-c1ccccc1 [Example 25, Methyl (2E)-3-{5-[4-(benzyloxy)phenyl]-1-cyclohexyl-4-phenyl-1H-pyrazol-3-yl}-2-propenate] | > 25
26 | COC(=O)/C=C/c1nn(C2CCCCC2)c(-c2ccc(OCc3cc(OC)ccc3-c3ccc(Cl)cc3)cc2)c1-c1ccccc1 [Example 27] | > 25

— US7112601B2, “Cycloalkyl heterocycles for treating hepatitis C virus” (priority 2003, dated 2006)
